ChEMBL document CHEMBL4002625, “Synthesis and structure-activity relationship studies of phenolic hydroxyl derivatives based on quinoxalinone as aldose reductase inhibitors with antioxidant activity” (Bioorg Med Chem Lett, 2017)

Tests used:
[1] = target: Aldo-keto reductase family 1 member B1 (Rattus norvegicus, UniProt P07943); experiment: Inhibition of rat lens ALR2 using D,L-glyceraldehyde as substrate assessed as decrease in NADPH oxidation preincubated for 10 mins followed by substrate addition measured for 4 mins by spectrophotometer
[2] = Antioxidant activity assessed as DPPH radical scavenging activity at 100 uM after 240 mins by UV spectrophotometer relative to control; type: functional
[3] = Antioxidant activity assessed as DPPH radical scavenging activity at 10 uM after 240 mins by UV spectrophotometer relative to control; type: functional
[4] = Antioxidant activity assessed as DPPH radical scavenging activity at 50 uM after 240 mins by UV spectrophotometer relative to control; type: functional

COc1ccc2nc(/C=C/c3ccccc3)c(=O)n(CC(=O)O)c2c1
IC50 [1]: 924 nM

O=C(O)Cn1c(=O)c(-c2ccccc2)nc2ccc(O)cc21
Activity [2]: 19.1% | IC50 [1]: 3950 nM

COc1ccc2c(c1)nc(-c1ccccc1)c(=O)n2CC(=O)O
IC50 [1]: 6820 nM

COc1ccc2nc(CCc3ccc(O)c(OC)c3)c(=O)n(CC(=O)O)c2c1
Activity [2]: 28.3% | IC50 [1]: 847 nM

O=C(O)Cn1c(=O)c(/C=C/c2ccc(O)c(O)c2)nc2cc(O)ccc21
Activity [2]: 90.4% | Activity [3]: 64.2% | IC50 [1]: 159 nM | Activity [4]: 77.8%

COc1ccc2nc(/C=C/c3ccc(O)c(OC)c3)c(=O)n(CC(=O)O)c2c1
Activity [2]: 83.5% | Activity [3]: 42.2% | IC50 [1]: 210 nM | Activity [4]: 65.9%

COc1ccc2c(c1)nc(/C=C/c1ccc(O)cc1)c(=O)n2CC(=O)O
Activity [2]: 51.8% | IC50 [1]: 98 nM | Activity [4]: 27.6%

COc1ccc2nc(-c3ccc(O)cc3)c(=O)n(CC(=O)O)c2c1
Activity [2]: 12.3% | IC50 [1]: 2080 nM

O=C(O)Cn1c(=O)c(/C=C/c2ccc(O)c(O)c2)nc2ccc(O)cc21
Activity [2]: 96.2% | Activity [3]: 70.5% | IC50 [1]: 102 nM | Activity [4]: 82.1%

COc1ccc2nc(-c3c(O)cc(O)cc3O)c(=O)n(CC(=O)O)c2c1
Activity [2]: 80.6% | Activity [3]: 40.6% | IC50 [1]: 116 nM | Activity [4]: 69.3%

COc1ccc2nc(CCc3ccc(O)cc3)c(=O)n(CC(=O)O)c2c1
Activity [2]: 20.7% | IC50 [1]: 508 nM

O=C(O)Cn1c(=O)c(-c2ccccc2)nc2cc(O)ccc21
Activity [2]: 15.8% | IC50 [1]: 4290 nM

COc1ccc2nc(-c3cccc(O)c3)c(=O)n(CC(=O)O)c2c1
Activity [2]: 8.5% | IC50 [1]: 3410 nM

COc1ccc2nc(/C=C/c3ccc(O)cc3)c(=O)n(CC(=O)O)c2c1
Activity [2]: 59.2% | IC50 [1]: 59 nM | Activity [4]: 34.3%

COc1ccc2c(c1)nc(/C=C/c1ccc(O)c(OC)c1)c(=O)n2CC(=O)O
Activity [2]: 74.9% | Activity [3]: 39.7% | IC50 [1]: 185 nM | Activity [4]: 61.4%

COc1ccc2nc(-c3ccccc3)c(=O)n(CC(=O)O)c2c1
IC50 [1]: 5310 nM

COc1ccc2nc(-c3ccc(O)cc3O)c(=O)n(CC(=O)O)c2c1
Activity [2]: 37.2% | IC50 [1]: 179 nM

Cc1c(C)c2c(c(C)c1O)CCC(C)(C(=O)O)O2 (stereo not given)
Activity [2]: 96.5% | Activity [3]: 89.3% | Activity [4]: 92.7%

COc1ccc2nc(CCc3ccccc3)c(=O)n(CC(=O)O)c2c1
IC50 [1]: 1300 nM

COc1ccc2nc(-c3cc(O)ccc3O)c(=O)n(CC(=O)O)c2c1
Activity [2]: 25.4% | IC50 [1]: 865 nM

COc1ccc2c(c1)nc(-c1c(O)cc(O)cc1O)c(=O)n2CC(=O)O
Activity [2]: 68.7% | Activity [3]: 36.4% | IC50 [1]: 273 nM | Activity [4]: 53.7%

COc1ccc2c(c1)nc(CCc1ccc(O)c(OC)c1)c(=O)n2CC(=O)O
Activity [2]: 31.9% | IC50 [1]: 983 nM
